Reference: ChEMBL document CHEMBL4837225, “Water-soluble derivatives of evodiamine: Discovery of evodiamine-10-phosphate as an orally active antitumor lead compound” (Eur J Med Chem, 2021)
≈ marks a conversion by molar mass, not a printed value. Calls of active or inactive are those of the source. No cut-off for these calls is given here.

What was measured:
A549 = experiment: Antiproliferative activity against human A549 cells assessed as inhibition of cell proliferation incubated for 72 hrs by CCK8 assay; type: functional, cell-based; conditions: A549, 72 h
HCT-116 [1] = experiment: Antiproliferative activity against human HCT-116 cells assessed as inhibition of cell proliferation incubated for 72 hrs by CCK8 assay; type: functional, cell-based; conditions: HCT-116, 72 h
[2] = target: DNA topoisomerase 2-alpha (Homo sapiens) (UniProt P11388); experiment: Inhibition of TOP2 (unknown origin) assessed as formation of short DNA fragments using supercoiled plasmid DNA at 100 uM by ethidium bromide staining based gel
Sequence of DNA topoisomerase 2-alpha (Homo sapiens) (P11388 whole entry, the tested form may be a part): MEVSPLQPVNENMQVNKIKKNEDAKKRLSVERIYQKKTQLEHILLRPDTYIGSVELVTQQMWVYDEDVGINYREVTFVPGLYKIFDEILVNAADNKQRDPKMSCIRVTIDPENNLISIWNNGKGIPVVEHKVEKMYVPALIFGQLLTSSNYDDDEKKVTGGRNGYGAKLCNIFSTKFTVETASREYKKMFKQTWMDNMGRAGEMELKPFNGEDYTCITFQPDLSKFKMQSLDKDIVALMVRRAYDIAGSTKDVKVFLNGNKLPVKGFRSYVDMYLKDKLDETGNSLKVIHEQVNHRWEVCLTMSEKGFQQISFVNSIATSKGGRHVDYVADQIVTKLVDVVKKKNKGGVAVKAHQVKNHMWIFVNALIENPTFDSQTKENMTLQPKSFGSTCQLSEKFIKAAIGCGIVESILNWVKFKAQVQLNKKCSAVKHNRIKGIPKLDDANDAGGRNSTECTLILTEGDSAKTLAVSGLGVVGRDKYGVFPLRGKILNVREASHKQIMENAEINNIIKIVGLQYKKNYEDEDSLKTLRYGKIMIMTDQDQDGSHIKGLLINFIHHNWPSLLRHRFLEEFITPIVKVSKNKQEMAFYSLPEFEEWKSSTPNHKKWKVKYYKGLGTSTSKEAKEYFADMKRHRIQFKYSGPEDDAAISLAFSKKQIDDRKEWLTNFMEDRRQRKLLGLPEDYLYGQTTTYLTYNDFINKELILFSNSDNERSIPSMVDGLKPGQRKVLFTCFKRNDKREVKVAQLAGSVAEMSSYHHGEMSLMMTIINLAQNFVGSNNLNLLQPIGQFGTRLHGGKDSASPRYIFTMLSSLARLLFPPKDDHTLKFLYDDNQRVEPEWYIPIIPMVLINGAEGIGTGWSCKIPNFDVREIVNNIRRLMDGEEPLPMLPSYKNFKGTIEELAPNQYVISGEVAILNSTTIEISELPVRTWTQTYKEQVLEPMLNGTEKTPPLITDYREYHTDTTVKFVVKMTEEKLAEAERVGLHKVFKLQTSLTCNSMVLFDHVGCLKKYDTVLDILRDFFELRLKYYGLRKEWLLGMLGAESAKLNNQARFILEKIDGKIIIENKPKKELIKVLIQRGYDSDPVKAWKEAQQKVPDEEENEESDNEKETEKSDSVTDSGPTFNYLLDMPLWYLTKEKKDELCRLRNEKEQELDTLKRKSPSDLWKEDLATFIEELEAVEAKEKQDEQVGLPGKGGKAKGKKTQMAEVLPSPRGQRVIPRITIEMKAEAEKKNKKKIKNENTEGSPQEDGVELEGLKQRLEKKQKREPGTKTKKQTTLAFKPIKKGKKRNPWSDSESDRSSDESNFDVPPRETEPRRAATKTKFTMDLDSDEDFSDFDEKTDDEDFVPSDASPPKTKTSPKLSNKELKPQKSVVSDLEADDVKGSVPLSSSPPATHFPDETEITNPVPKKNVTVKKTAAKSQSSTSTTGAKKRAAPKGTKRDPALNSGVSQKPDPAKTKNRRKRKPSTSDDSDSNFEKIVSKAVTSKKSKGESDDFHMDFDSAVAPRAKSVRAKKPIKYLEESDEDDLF

[3] = Solubility of the compound in double distilled water; type: physicochemical
MDA-MB-231 = experiment: Antiproliferative activity against human MDA-MB-231 cells assessed as inhibition of cell proliferation incubated for 72 hrs by CCK8 assay; type: functional, cell-based; conditions: MDA-MB-231, 72 h
[4] = target: T1, DNA topoisomerase 1 (Homo sapiens) (UniProt P11387); experiment: Inhibition of TOP1 (unknown origin) assessed as decrease in relaxation of supercoiled DNA using pBR322 plasmid DNA as substrate at 100 uM by ethidium bromide staining based gel electrophoresis
T1 sequence (whole entry): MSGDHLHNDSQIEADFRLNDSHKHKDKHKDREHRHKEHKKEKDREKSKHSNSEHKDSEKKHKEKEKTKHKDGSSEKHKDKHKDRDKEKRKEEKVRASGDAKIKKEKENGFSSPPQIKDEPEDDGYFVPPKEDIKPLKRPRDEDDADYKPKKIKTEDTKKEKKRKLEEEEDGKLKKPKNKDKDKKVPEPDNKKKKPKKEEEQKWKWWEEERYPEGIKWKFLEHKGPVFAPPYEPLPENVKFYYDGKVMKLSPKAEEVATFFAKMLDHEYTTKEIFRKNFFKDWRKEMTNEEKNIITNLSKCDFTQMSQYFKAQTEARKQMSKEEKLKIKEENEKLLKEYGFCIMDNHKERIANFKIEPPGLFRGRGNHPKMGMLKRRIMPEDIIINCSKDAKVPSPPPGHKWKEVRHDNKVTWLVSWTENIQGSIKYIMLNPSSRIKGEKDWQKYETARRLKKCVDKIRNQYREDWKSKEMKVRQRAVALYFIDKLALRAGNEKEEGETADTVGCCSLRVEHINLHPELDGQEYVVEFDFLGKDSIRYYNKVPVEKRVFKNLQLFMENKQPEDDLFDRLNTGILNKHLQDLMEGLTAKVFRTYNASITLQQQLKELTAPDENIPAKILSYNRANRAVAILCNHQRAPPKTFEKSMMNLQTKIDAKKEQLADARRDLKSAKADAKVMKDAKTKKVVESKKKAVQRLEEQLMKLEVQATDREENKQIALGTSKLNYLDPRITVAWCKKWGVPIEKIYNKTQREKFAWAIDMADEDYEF

HCT-116 [5] = experiment: Antitumor activity against human HCT-116 cells xenografted in BALB/c nude mouse assessed as inhibition of tumor growth at 16 mg/kg/day, ip BID administered for 21 days measured by caliper; type: functional, organism-based; conditions: time 21.0 day
[6] = Toxicity in BALB/c nude mouse xenografted with human A549 cells assessed as morphological changes in kidney at 150 mg/kg, po bid by H&E staining based light microscopic analysis; type: organism-based; conditions: in vivo
HCT-116 [7] = experiment: Antitumor activity against human HCT-116 cells xenografted in BALB/c nude mouse assessed as necrosis at 150 mg/kg, po bid by H&E staining based light microscopic analysis; type: functional, organism-based
HCT-116 [8] = experiment: Antitumor activity against human HCT-116 cells xenografted in BALB/c nude mouse assessed as inhibition of tumor growth at 150 mg/kg, po BID measured by caliper relative to control; type: functional; conditions: HCT-116, po, read-out: TGI
HCT-116 [9] = experiment: Antitumor activity against human HCT-116 cells xenografted in BALB/c nude mouse assessed as inhibition of tumor growth at 60 mg/kg, po BID administered for 21 days measured by caliper relative to control; type: functional; conditions: HCT-116, po, 504 h, time 21 day, read-out: TGI
[10] = Half life in mouse liver microsomes; type: ADME, Microsome
[11] = Toxicity in BALB/c nude mouse xenografted with human A549 cells assessed as morphological changes in liver at 150 mg/kg, po bid by H&E staining based light microscopic analysis; type: organism-based; conditions: in vivo

Structure (SMILES)	IC50 (A549)	IC50 (HCT-116 [1])	inhibition [2]	solubility [3]	IC50 (MDA-MB-231)	inhibition [4]	TGI (HCT-116 [5])	Activity [6]	Activity (HCT-116 [7])	inhibition in vivo at 150 mg/kg (HCT-116 [8])	inhibition in vivo at 60 mg/kg (HCT-116 [9])	half-life [10]	Activity [11]
CN1c2ccccc2C(=O)N2CCc3c([nH]c4ccc(NC(=O)C(N)CO)cc34)C21 (centres undefined)	6300 nM	1900 nM	Active	20 µg/mL (≈ 49.3 µM)	870 nM	–	–	–	–	–	–	–	–
CN1c2ccccc2C(=O)N2CCc3c([nH]c4ccc(NC(=O)C5CCCN5)cc34)C21 (centres undefined)	> 10000 nM	> 10000 nM	Active	15 µg/mL (≈ 36.1 µM)	> 10000 nM	–	–	–	–	–	–	–	–
CC(C)[C@H](N)C(=O)Oc1ccc2[nH]c3c(c2c1)CCN1C(=O)c2ccccc2N(C)C31 (some centres undefined)	> 10000 nM	< 3 nM	Active	18 µg/mL (≈ 43 µM)	49 nM	Active	–	–	–	–	–	–	–
CC(C)CC(N)C(=O)Nc1ccc2[nH]c3c(c2c1)CCN1C(=O)c2ccccc2N(C)C31 (centres undefined)	> 10000 nM	> 10000 nM	Active	14 µg/mL (≈ 32.4 µM)	> 10000 nM	–	–	–	–	–	–	–	–
CN1c2ccccc2C(=O)N2CCc3c([nH]c4ccc(NC(=O)C(N)Cc5ccccc5)cc34)C21 (centres undefined)	> 10000 nM	4400 nM	Active	16 µg/mL (≈ 34.4 µM)	> 10000 nM	–	–	–	–	–	–	–	–
CN1c2ccccc2C(=O)N2CCc3c([nH]c4ccc(NC(=O)CCC(=O)O)cc34)C21 (centres undefined)	> 10000 nM	1400 nM	Active	16 µg/mL (≈ 38.2 µM)	530 nM	–	–	–	–	–	–	–	–
CN1c2ccccc2C(=O)N2CCc3c([nH]c4ccc(NS(C)(=O)=O)cc34)C21 (centres undefined)	720 nM	460 nM	Active	29 µg/mL (≈ 73.1 µM)	190 nM	–	inactive	–	–	–	–	–	–
CN1c2ccccc2C(=O)N2CCc3c([nH]c4ccc(NC(=O)C(N)Cc5c[nH]c6ccccc56)cc34)C21 (centres undefined)	> 10000 nM	1700 nM	Active	12 µg/mL (≈ 23.8 µM)	520 nM	–	–	–	–	–	–	–	–
CSCCC(N)C(=O)Nc1ccc2[nH]c3c(c2c1)CCN1C(=O)c2ccccc2N(C)C31 (centres undefined)	> 10000 nM	1600 nM	Active	15 µg/mL (≈ 33.4 µM)	810 nM	–	–	–	–	–	–	–	–
CN1c2ccccc2C(=O)N2CCc3c([nH]c4ccc(NS(N)(=O)=O)cc34)C21 (centres undefined)	5000 nM	1100 nM	Active	23 µg/mL (≈ 57.9 µM)	840 nM	–	–	–	–	–	–	–	–
CC(N)C(=O)Nc1ccc2[nH]c3c(c2c1)CCN1C(=O)c2ccccc2N(C)C31 (centres undefined)	4900 nM	940 nM	Active	28 µg/mL (≈ 71.9 µM)	520 nM	–	–	–	–	–	–	–	–
CN1c2ccccc2C(=O)N2CCc3c([nH]c4ccc(O)cc34)[C@H]21	280 nM	< 3 nM	Active	11 µg/mL (≈ 34.4 µM)	94 nM	–	–	Non-Toxic	Active	57%	24%	14.3 min	Non-Toxic
CN1c2ccccc2C(=O)N2CCc3c([nH]c4ccc(NC(=O)C(N)CCC(N)=O)cc34)C21 (centres undefined)	> 10000 nM	5800 nM	Active	14 µg/mL (≈ 31.4 µM)	> 10000 nM	–	–	–	–	–	–	–	–
CN1c2ccccc2C(=O)N2CCc3c([nH]c4ccc(OC(=O)[C@@H](N)COCc5ccccc5)cc34)C21 (some centres undefined)	> 10000 nM	21 nM	Active	12 µg/mL (≈ 24.2 µM)	> 10000 nM	Active	–	–	–	–	–	–	–
